The values below come from patent publication US10533015B1, “Opioid receptor antagonist prodrugs” (Nirsum Laboratories, Inc., priority 2019, dated 2020).

Like-named read-outs stand apart in the source and are kept apart here. A value given as a limit tells only on which side of the number the result lay.

The mark [1] stands for this setting: heating temp. 60 °C, obs. temp. 25 °C.
The mark [2] stands for this setting: section 'Solubility by volumetric flask method', heating temp. 40 °C, obs. temp. 40 °C.
Where [3] appears, read: heating temp. 40 °C, obs. temp. 40 °C.
Where [4] appears, read: heating temp. 60 °C, obs. temp. 40 °C.

Regarding `C=C1CC[C@@]2(O)C3Cc4ccc(OC(=O)OCCCCCCCCCCC)c5c4[C@@]2(CCN3CC2CC2)[C@H]1O5` [Compound 3, (4aS,7aS,12bS)-3-(cyclopropylmethyl)-4a-hydroxy-7-methylene-2,3,4,4a,5,6,7,7a-octahydro-1H-4,12-methanobenzofuro[3,2-e]isoquinolin-9-yl undecyl carbonate], under setting [1], the “Solubility by volumetric flask method: Cottonseed oil” value is more than 399.12 mg/mL and the “Solubility by volumetric flask method: Sesame oil” value is listed as more than 400.7 mg/mL. The “Equilibrium solubility (mg/mL) Water” value under setting [2] is reported as less than 0.001 mg/mL.
For `CCCCCCCCCCCOC(=O)OCOc1ccc2c3c1O[C@H]1C(=O)CC[C@@]4(O)C(C2)N(CC2CC2)CC[C@]314` [Compound 4, (((4aS,7aR,12bS)-3-(cyclopropylmethyl)-4a-hydroxy-7-oxo-2,3,4,4a,5,6,7,7a-octahydro-1H-4,12-methanobenzofuro[3,2-e]isoquinolin-9-yl)oxy)methyl undecyl carbonate], in that order: more than 395.3 mg/mL, more than 400.4 mg/mL and less than 0.001 mg/mL.
For `C=C1CC[C@@]2(O)C3Cc4ccc(OCOC(=O)OCCCCCCCCCCC)c5c4[C@@]2(CCN3CC2CC2)[C@H]1O5` [Compound 5, (((4aS,7aS,12bS)-3-(cyclopropylmethyl)-4a-hydroxy-7-methylene-2,3,4,4a,5,6,7,7a-octahydro-1H-4,12-methanobenzofuro[3,2-e]isoquinolin-9-yl)oxy)methyl undecyl carbonate], in that order: more than 401.8 mg/mL, more than 400.6 mg/mL and less than 0.001 mg/mL.
As for `CCCCCCCC/C=C/CCCCCCCC(=O)Oc1ccc2c3c1O[C@H]1C(=O)CC[C@@]4(O)C(C2)N(CC2CC2)CC[C@]314` [Compound 8, (4aS,7aR,12bS)-3-(cyclopropylmethyl)-4a-hydroxy-7-oxo-2,3,4,4a,5,6,7,7a-octahydro-1H-4,12-methanobenzofuro[3,2-e]isoquinolin-9-yl (E)-octadec-9-enoate], for the setting “heating 60 °C, obs. 25 °C, initial failed batch due to non-optimized synthesis”, the “Approximate Solubility (mg/mL) in Excipient: Cottonseed oil” value (“Approximate Solubility … Cottonseed oil” for short) is reported as less than 50 mg/mL. Also, the “Solubility by volumetric flask method: Sesame oil” value under setting [1] is listed as more than 399.8 mg/mL. Besides, under setting [2], the “Equilibrium solubility (mg/mL) Water” value is on record as less than 0.001 mg/mL.
Turning to `C=C1CC[C@@]2(O)C3Cc4ccc(OC(=O)CCCCCCCCCCCCCCCCC)c5c4[C@@]2(CCN3CC2CC2)[C@H]1O5` [Compound 12, (4aS,7aS,12bS)-3-(cyclopropylmethyl)-4a-hydroxy-7-methylene-2,3,4,4a,5,6,7,7a-octahydro-1H-4,12-methanobenzofuro[3,2-e]isoquinolin-9-yl stearate], under setting [3], the “Approximate Solubility … Cottonseed oil” value lay in the range of 100 to 120 mg/mL, the “Approximate Solubility (mg/mL) in Excipient: Ethanol” value (“Approximate Solubility … Ethanol” for short) lay within 65 to 75 mg/mL and the “Approximate Solubility (mg/mL) in Excipient: Sesame oil” value (shortened to “Approximate Solubility … Sesame oil”) lay in the range of 70 to 95 mg/mL. Further, under setting [1], the “Approximate Solubility … Cottonseed oil” value is listed as less than 51 mg/mL and the “Approximate Solubility … Sesame oil” value is less than 50 mg/mL. Besides, under setting [4], the “Approximate Solubility … Cottonseed oil” value is more than 398.5 mg/mL and the “Approximate Solubility … Sesame oil” value is recorded as more than 411.1 mg/mL.
For the molecule `C=C1CC[C@@]2(O)C3Cc4ccc(OC(=O)CCCCCCCCCCC/C=C\CCCCCCCC)c5c4[C@@]2(CCN3CC2CC2)[C@H]1O5` [Compound 13, (4aS,7aS,12bS)-3-(cyclopropylmethyl)-4a-hydroxy-7-methylene-2,3,4,4a,5,6,7,7a-octahydro-1H-4,12-methanobenzofuro[3,2-e]isoquinolin-9-yl (Z)-docos-13-enoate], under setting [3], the “Approximate Solubility … Cottonseed oil” value was more than 381 mg/mL, the “Approximate Solubility … Ethanol” value is more than 214 mg/mL and the “Approximate Solubility … Sesame oil” value is reported as more than 406 mg/mL. For the same molecule, under setting [1], the “Approximate Solubility … Cottonseed oil” value is given as less than 50 mg/mL and the “Approximate Solubility … Sesame oil” value is 91 to 121 mg/mL.
For the molecule `C=C1CC[C@@]2(O)C3Cc4ccc(OC(=O)CCCCCCC/C=C\C/C=C\C/C=C\CC)c5c4[C@@]2(CCN3CC2CC2)[C@H]1O5` [Compound 20, (4aS,7aS,12bS)-3-(cyclopropylmethyl)-4a-hydroxy-7-methylene-2,3,4,4a,5,6,7,7a-octahydro-1H-4,12-methanobenzofuro[3,2-e]isoquinolin-9-yl (9Z,12Z,15Z)-octadeca-9,12,15-trienoate], under setting [3], the “Approximate Solubility … Cottonseed oil” value was more than 414 mg/mL, the “Approximate Solubility … Ethanol” value was 157 to 197 mg/mL, the “Approximate Solubility … Sesame oil” value is reported as more than 406 mg/mL and the “Equilibrium solubility (mg/mL) Water” value was less than 0.0002 mg/mL. Further, under setting [1], the “Approximate Solubility … Cottonseed oil” value lay in the range of 68 to 82 mg/mL and the “Approximate Solubility … Sesame oil” value lay in the range of 80 to 100 mg/mL.
In the case of `CCCCCCCC/C=C\CCCCCCCCCCCC(=O)Oc1ccc2c3c1O[C@H]1C(=O)CC[C@@]4(O)C(C2)N(CC2CC2)CC[C@]314` [Compound 22, (4aS,7aR,12bS)-3-(cyclopropylmethyl)-4a-hydroxy-7-oxo-2,3,4,4a,5,6,7,7a-octahydro-1H-4,12-methanobenzofuro[3,2-e]isoquinolin-9-yl (Z)-docos-13-enoate], under setting [1], the “Approximate Solubility … Cottonseed oil” value lay within 67 to 80 mg/mL and the “Approximate Solubility … Sesame oil” value was in the range of 67 to 80 mg/mL. Also, under setting [4], the “Approximate Solubility … Cottonseed oil” value is on record as more than 405.9 mg/mL, the “Approximate Solubility … Ethanol” value is recorded as more than 397.7 mg/mL and the “Approximate Solubility … Sesame oil” value is reported as more than 401.9 mg/mL.
Consider `CCCCCCCC/C=C/CCCCCCCC(=O)OCOc1ccc2c3c1O[C@H]1C(=O)CC[C@@]4(O)C(C2)N(CC2CC2)CC[C@]314` [Compound 26, (((4aS,7aR,12bS)-3-(cyclopropylmethyl)-4a-hydroxy-7-oxo-2,3,4,4a,5,6,7,7a-octahydro-1H-4,12-methanobenzofuro[3,2-e]isoquinolin-9-yl)oxy)methyl (E)-octadec-9-enoate], for which, under setting [1], the “Approximate Solubility … Cottonseed oil” value is recorded as 204.3-239^ mg/mL and the “Approximate Solubility … Sesame oil” value was less than 354 mg/mL. Besides, under setting [3], the “Equilibrium solubility (mg/mL) Water” value is less than 0.001 mg/mL.
In the same order, the values of `CCCCCCCCCCCCCCOC(=O)OCOc1ccc2c3c1O[C@H]1C(=O)CC[C@@]4(O)C(C2)N(CC2CC2)CC[C@]314` [Compound 27, (((4aS,7aR,12bS)-3-(cyclopropylmethyl)-4a-hydroxy-7-oxo-2,3,4,4a,5,6,7,7a-octahydro-1H-4,12-methanobenzofuro[3,2-e]isoquinolin-9-yl)oxy)methyl tetradecyl carbonate] are more than 394.7 mg/mL, more than 399.2 mg/mL and less than 0.001 mg/mL.
Take `C=C1CC[C@@]2(O)C3Cc4ccc(OC(=O)OCCCCCCCCCCCCCCCCCCCC)c5c4[C@@]2(CCN3CC2CC2)[C@H]1O5` [Compound 28, (4aS,7aS,12bS)-3-(cyclopropylmethyl)-4a-hydroxy-7-methylene-2,3,4,4a,5,6,7,7a-octahydro-1H-4,12-methanobenzofuro[3,2-e]isoquinolin-9-yl icosyl carbonate]: under setting [1], the “Approximate Solubility … Cottonseed oil” value is less than 50.2 mg/mL and the “Approximate Solubility … Sesame oil” value is less than 50.6 mg/mL. In addition, the “Equilibrium solubility (mg/mL) Water” value under setting [3] is less than 0.001 mg/mL.
In the same order, the values of `CCCCCCCCCCCCOC(=O)OCOc1ccc2c3c1O[C@H]1C(=O)CC[C@@]4(O)C(C2)N(CC2CC2)CC[C@]314` [Compound 29, (((4aS,7aR,12bS)-3-(cyclopropylmethyl)-4a-hydroxy-7-oxo-2,3,4,4a,5,6,7,7a-octahydro-1H-4,12-methanobenzofuro[3,2-e]isoquinolin-9-yl)oxy)methyl dodecyl carbonate] are more than 410.2 mg/mL, more than 416.5 mg/mL and less than 0.001 mg/mL.
With `C=C1CC[C@@]2(O)C3Cc4ccc(OC(=O)OCCCCCCCCCCCCCCCCCC)c5c4[C@@]2(CCN3CC2CC2)[C@H]1O5` [Compound 33, (4aS,7aS,12bS)-3-(cyclopropylmethyl)-4a-hydroxy-7-methylene-2,3,4,4a,5,6,7,7a-octahydro-1H-4,12-methanobenzofuro[3,2-e]isoquinolin-9-yl octadecyl carbonate], under setting [1], the “Approximate Solubility … Cottonseed oil” value is listed as less than 50 mg/mL and the “Approximate Solubility … Sesame oil” value is less than 51 mg/mL. Moreover, the “Equilibrium solubility (mg/mL) Water” value under setting [3] was less than 0.001 mg/mL.
Consider `C=C1CC[C@@]2(O)C3Cc4ccc(OC(=O)CCCCCCC/C=C\C/C=C\CCCCC)c5c4[C@@]2(CCN3CC2CC2)[C@H]1O5` [Compound 37, (4aS,7aS,12bS)-3-(cyclopropylmethyl)-4a-hydroxy-7-methylene-2,3,4,4a,5,6,7,7a-octahydro-1H-4,12-methanobenzofuro[3,2-e]isoquinolin-9-yl (9Z,12Z)-octadeca-9,12-dienoate], for which the “Approximate Solubility (mg/mL) in Excipient: Castor oil” value (Castor oil, heating temp. 40 °C, obs. temp. 40 °C) was more than 226 mg/mL. Under setting [1], the “Approximate Solubility … Cottonseed oil” value was 68.5-82^ mg/mL and the “Approximate Solubility … Sesame oil” value fell in the range of 80 to 102 mg/mL. Also, under setting [3], the “Approximate Solubility … Ethanol” value is 75 to 90 mg/mL and the “Approximate Solubility … Sesame oil” value is reported as more than 408.4 mg/mL.
